Several values for one entry are separate records, joined by “and”; a condition that tells them apart may be missing. Equal entries are not always repeated. Where two headings read alike, the source gives them in different places.
Columns and labels:
[1] = Tissue distribution after single oral SZ-A (40 mg/kg) in SD rats, plasma and 12 tissues; assay type: in vivo; details: for half-life / AUC(0-t) / Tmax / Cmax: rat; for AUC(0-t): n=5, read-out: AUC(0-t)
Description: (§1) Twenty SD rats were randomly classified into four groups corresponding to four-time points (5 and 30 min, 4 and 12 h) (n = 20; 5 animals per time point) that received SZ-A solution (40 mg/kg) via oral administration. After the completion of dose administration, plasma and tissue samples (derived from the heart, liver, spleen, lung, kidney, aortic blood vessels, brown adipose tissue, subcutaneous adipose tissue, abdominal adipose tissue, muscle (thigh skeletal muscle), pancreas, and brain) were collected at predetermined time points. Twenty-eight ICR mice were randomly classified into four groups (n = 7 per group) corresponding to four-time points (5 and 30 min, 4 and 12 h) that received SZ-A solution (20 mg/kg) via oral administration. After the completion of dose administration, tissue samples (derived from the heart, liver, spleen, lung, kidney, aortic blood vessels, brown adipose tissue, abdominal adipose tissue, muscle (thigh skeletal muscle), pancreas, and brain) were collected at predetermined time points.
(§2) Collected tissue samples were washed with normal saline. The surface moisture was removed by blotting gently with filter paper, and the weight was recorded. After adding an appropriate amount of normal saline, these tissue samples were ground into homogenates using a cryogenic grinder (JX-CL, Shanghai Jingxin, Shanghai, China). The obtained homogenates were stored at −80°C until LC-MS/MS analysis.
Primary pharmacokinetic parameters, including Cmax, Tmax, area under the plasma concentration-time curve (AUC), t1/2, clearance rate, and the apparent volume of distribution, were calculated using DAS 3.2.8 (Bio Guider Co., Shanghai, China).

[2] = Tissue distribution after single oral SZ-A (20 mg/kg) in ICR mice; assay type: in vivo
Description: as §1, §2

[3] = Identification of metabolites in HLMs/RLMs and rat plasma (Q-Extractive high-resolution MS); assay type: in vitro ADME, human; details: HLMs/RLMs and rat plasma reaction system
Description: Furthermore, 5 μL of the supernatant was collected for LC-MS/MS analysis. The LC-MS/MS conditions were as follows: chromatographic column (XBridge™ Amide, 3.5 µm, 4.6 × 150 mm); mobile phase, water (0.1% ammonia) and acetonitrile, other conditions are the same as those in CYP450s inhibition study, with the following scan parameters: resolution, 70,000; AGC target, 3,000,000; maximum IT, 200 ms; and scan range, 50–600 m/z.

[4] = parameters: method as in Yang et al., 2017; details: ref Yang et al., 2017, cited from earlier work
rat CYP2C11 = molecular target: T1, rat CYP2C11 (Rattus norvegicus, UniProt P08683); assay: Inhibition of CYP450s in rat liver microsomes, probe mephenytoin; details: RLMs; SZ-A 8.899 μg/mL, DNJ 20 μM, FA 5 μM, DAB 8 μM
T1 sequence (P08683 1-500): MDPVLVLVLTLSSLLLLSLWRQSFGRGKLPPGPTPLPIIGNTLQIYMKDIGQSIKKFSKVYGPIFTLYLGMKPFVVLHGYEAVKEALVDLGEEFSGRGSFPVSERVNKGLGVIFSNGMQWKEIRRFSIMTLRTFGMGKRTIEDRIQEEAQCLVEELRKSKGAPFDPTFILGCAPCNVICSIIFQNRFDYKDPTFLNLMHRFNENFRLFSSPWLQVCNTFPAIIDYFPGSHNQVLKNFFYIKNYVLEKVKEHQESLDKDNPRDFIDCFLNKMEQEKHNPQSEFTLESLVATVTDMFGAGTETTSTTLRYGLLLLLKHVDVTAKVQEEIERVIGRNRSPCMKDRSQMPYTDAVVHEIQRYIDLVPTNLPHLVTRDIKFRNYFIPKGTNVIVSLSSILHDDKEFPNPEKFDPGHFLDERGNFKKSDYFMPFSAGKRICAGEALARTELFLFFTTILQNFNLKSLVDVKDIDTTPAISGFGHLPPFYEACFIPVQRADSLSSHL

[5] = test system: CYP450s in RLMs (other isoenzymes); assay: Effect on activity of rat liver microsome isoenzymes other than CYP2C11; details: SZ-A 8.899 μg/mL, DNJ 20 μM, FA 5 μM, DAB 8 μM
[6] = Sprague-Dawley, muscle (thigh skeletal muscle), Muscle, n=5
[7] = Subcutaneous adipose tissue, n=5

OC[C@H]1NCC[C@@H](O)[C@@H]1O [FA, fagomine]
time of maximum drug concentration in heart, muscle, lung, and aortic vessels [1]: 5 min
tissues with the highest concentrations [1]: kidney, followed by the liver, aortic vessels, and brown adipose tissue
CLz ([1]; Plasma, n=5): 65.8 ± 15 mL/min/kg
Vz ([1]; Plasma, n=5): 4.39 ± 2.04 L/kg
half-life ([1]; Sprague-Dawley, Brown adipose tissue, n=5): 139 ± 139 min
AUC(0-t) ([1]; Sprague-Dawley, Brown adipose tissue): 1480 ± 380 ng·h/mL
Tmax ([1]; Sprague-Dawley, Brown adipose tissue, n=5, read-out: Tmax): 19.8 ± 13.8 min
Cmax ([1]; Sprague-Dawley, Kidney, n=5): 8970 ± 1680 ng/mL
half-life ([1]; Sprague-Dawley, Kidney, n=5): 139 ± 72.6 min
AUC(0-t) ([1]; Sprague-Dawley, Kidney): 27000 ± 8880 ng·h/mL
Tmax ([1]; Sprague-Dawley, Kidney, n=5, read-out: Tmax): 25.2 ± 11.4 min
Cmax ([1]; Sprague-Dawley, Liver, n=5): 1130 ± 187 ng/mL
half-life ([1]; Sprague-Dawley, Liver, n=5): 36 ± 0.6 min
AUC(0-t) ([1]; Sprague-Dawley, Liver): 2990 ± 1030 ng·h/mL
Tmax ([1]; Sprague-Dawley, Liver, n=5, read-out: Tmax): 25.2 ± 11.4 min
Cmax ([1]; Sprague-Dawley, Lung, n=5): 248 ± 5.46 ng/mL
half-life ([1]; Sprague-Dawley, Lung, n=5): 31.2 ± 15.6 min
Tmax ([1]; Sprague-Dawley, Lung, n=5, read-out: Tmax): 13.2 ± 14.4 min
Cmax ([1]; Sprague-Dawley, Pancreas, n=5): 96.9 ± 13.9 ng/mL
half-life ([1]; Sprague-Dawley, Pancreas, n=5): 42 ± 2.4 min
AUC(0-t) ([1]; Sprague-Dawley, Pancreas): 705 ± 118 ng·h/mL
Tmax ([1]; Sprague-Dawley, Pancreas, n=5, read-out: Tmax): 114 ± 115 min
Cmax ([1]; Sprague-Dawley, Plasma, n=5): 692 ± 135 ng/mL
half-life ([1]; Sprague-Dawley, Plasma, n=5): 46.8 ± 22.8 min
AUC(0-t) ([1]; Sprague-Dawley, Plasma): 1800 ± 421 ng·h/mL
Tmax ([1]; Sprague-Dawley, Plasma, n=5, read-out: Tmax): 25.2 ± 11.4 min
Cmax [1, 6]: 175 ± 91.2 ng/mL
half-life [1, 6]: 40.8 ± 2.4 min
AUC(0-t) ([1]; Sprague-Dawley, muscle (thigh skeletal muscle), Muscle): 577 ± 298 ng·h/mL
Tmax ([1]; Sprague-Dawley, muscle (thigh skeletal muscle), Muscle, n=5, read-out: Tmax): 19.8 ± 13.8 min
Cmax ([1]; Abdominal adipose tissue, n=5): 221 ± 137 ng/mL
half-life ([1]; Abdominal adipose tissue, n=5): 38.4 ± 15 min
AUC(0-t) ([1]; Abdominal adipose tissue): 409 ± 127 ng·h/mL
Tmax ([1]; Abdominal adipose tissue, n=5, read-out: Tmax): 25.2 ± 11.4 min
Cmax ([1]; Aortic blood vessels, n=5): 1090 ± 760 ng/mL
half-life ([1]; Aortic blood vessels, n=5): 27 ± 14.4 min
AUC(0-t) ([1]; Aortic blood vessels): 1060 ± 367 ng·h/mL
Tmax ([1]; Aortic blood vessels, n=5, read-out: Tmax): 4.8 min
Cmax ([1]; Brown adipose tissue, n=5): 463 ± 161 ng/mL
Cmax ([1]; Heart, n=5): 128 ± 33.6 ng/mL
half-life ([1]; Heart, n=5): 42.6 ± 0.6 min
AUC(0-t) ([1]; Heart): 382 ± 246 ng·h/mL
Tmax ([1]; Heart, n=5, read-out: Tmax): 10.2 ± 11.4 min
AUC(0-t) ([1]; Lung): 367 ± 136 ng·h/mL
Cmax ([1]; Spleen, n=5): 198 ± 77.7 ng/mL
half-life ([1]; Spleen, n=5): 42 ± 4.8 min
AUC(0-t) ([1]; Spleen): 491 ± 264 ng·h/mL
Tmax ([1]; Spleen, n=5, read-out: Tmax): 30 min
Cmax [1, 7]: 102 ± 52 ng/mL
half-life [1, 7]: 44.4 ± 1.8 min
AUC(0-t) ([1]; Subcutaneous adipose tissue): 212 ± 95 ng·h/mL
Tmax ([1]; Subcutaneous adipose tissue, n=5, read-out: Tmax): 15 ± 13.8 min
Tmax ([1]; other tissues (not named), tissues not named separately for that alkaloid, read-out: time of peak concentration in other tissues (converted)): 30 min
accumulation in tissues ([1]; up to 12 h): no long-term accumulation
tissues with the highest concentrations [2]: kidney, followed by the liver
metabolites found [3]: only trace oxidation products
form excreted ([4]; material conservation within 24 h after oral administration of SZ-A): mainly excreted in their original forms
oral absolute bioavailability ([4]; rats, after oral administration of SZ-A): 77.50% and > 70%
pharmacokinetic profile versus dose ([4]; rats, oral SZ-A 20–500 mg/kg): non-linear pharmacokinetics
effect on rat CYP2C11 (rat CYP2C11): mild activation effect
effect on other isoenzymes in RLMs [5]: no obvious effect

— paper PMC9981942, “Pharmacokinetics and tissue distribution of Ramulus Mori (Sangzhi) alkaloids in rats and its effects on liver enzyme activity” (Frontiers in Pharmacology, 2023)
